The values that follow come from patent US20100287625A1, “VEGF VARIANTS” (UNIVERSITE DE LIEGE, priority 2006, published 2010).

Assay [1] has as its system VEGF111 mRNA. Description: VEGF111 mRNA in blood cells treated ex vivo, RT-PCR. In kind it is cell-based, human. Conditions: blood cells of a healthy donor, 1 μM, 6 and 24 hours. The method, then:
FIG. 8: VEGF111 is expressed in blood cells treated with camptothecin (1 μM) ex vivo. Double arrowhead: internal standard. Vertical arrow indicates amplification products of VEGF111.
Blood was collected from a healthy donor, and cells were collected by centrifugation. Red blood cells were lyzed and the remaining cells were treated or not with camptothecin (1 μM) for 6 and 24 hours. Untreated cells were also investigated directly after collection. Total VEGF mRNA was measured by RT-PCR as described.

Assay [2] has as its system VEGF111 mRNA. Description: Induction of VEGF111 mRNA by genotoxic agents, RT-PCR. In kind it is cell-based, human. The method, then:
The indicated cells were treated with UV-B or camptothecin (30 mJ or 1 μM, respectively, except otherwise indicated) for 24 hours (except otherwise indicated) and VEGF and VEGF111 mRNA were measured by RT-PCR. (A) Polyacrylamide gel electrophoresis of RT-PCR products of VEGF (upper panel), VEGF111 (middle panel) and 28S rRNA (lower panel). Arrows in upper panel show the amplification product of VEGF111. The drawings on the right represent the exons (not to scale) in the corresponding VEGF isoforms. C: control cells; Cp: camptothecin treatment; M: 50 bp molecular weight marqueurs; R: cells rinsed with red phenol-free medium; UV: UV-B irradiation; -: non template control; arrowheads: RT-PCR products of synthetic RNA added to the test tubes to monitor reaction efficiency. (B to E) Dose-response analysis (B and D) and kinetic of induction (C and E) of VEGF111 mRNA level in MCF7 cells irradiated by UV-B (B and C) or treated with camptothecin (D and E). The expression of VEGF111 is expressed as the percentage of the signal corresponding to its mRNA taking the overall various VEGF isoforms mRNA, as measured in upper panel of (A) as 100%.
The RT-PCR amplifications were performed in an automated system (GeneAmp PCR System 2400 or 9600, Perkin Elmer, Norwalk, Conn.) using the GeneAmp Thermostable rTth Reverse Transcriptase RNA PCR kit (Perkin Elmer), 10 ng of total RNA and the different pairs of primers (5 pmole each, see Table 1). For amplification of VEGF isoforms mRNA and 28S rRNA, a known copy number of an internal standard RNA were included in each sample to monitor the efficiency of the reaction. The RT step (70° C., 15 min.) was followed by a 2 min. incubation at 95° C. for denaturation of RNA/DNA heteroduplexes, PCR amplification and final elongation for 2 min. at 72° C. The conditions for PCR amplification were 94° C. for 15 sec., 66° C. for 20 sec., 72° C. for 10 sec. for 28S rRNA and CD31 mRNA, or 94° C. for 20 sec, 66° C. for 30 sec. and 72° C. for one min for VEGF. RT-PCR products were resolved on 10% polyacrylamide gel and analysed using a Fluor-S MultiImager (BioRad) after staining with gelstar dye (FMC BioProducts, Rockland, Me.). Specific detection of VEGF111 isoform mRNA was performed as follow. mRNA was reverse transcribed using oligodT (Eurogentec, Seraing, Belgium) and Superscript II (Invitrogen) as described by the manufacturer. Reverse transcription (42° C., 50 min.) was followed by denaturation of the enzyme at 70° C. for 15 min. VEGF111 cDNA was amplified by PCR using 40 ng cDNA, the oligos P5 and P6 (Table 1) and Taq polymerase (Takara, Shiga, Japan). The conditions for PCR amplification were 94° C. for 15 sec., 70° C. for 20 sec.,72° C. for 10 sec.

Turning to `CC[C@@]1(O)C(=O)OCc2c1cc1n(c2=O)Cc2cc3ccccc3nc2-1` [Camptothecin], the “VEGF111 mRNA in blood cells” value in the assay with VEGF111 mRNA [1] is reported as “expressed”. The “expression of VEGF111” value in the assay on VEGF111 mRNA [2] (1 μM, HaCat cells and MCF7 cells, by 24 hours, level similar to or higher than after UV-irradiation) is given as “induced”. Also, in the assay on VEGF111 mRNA [2] (MCF7 cells, camptothecin), the “time after which VEGF111 induction reached a plateau” value came out at 24 h and the “time after which VEGF111 induction was already detected” value worked out at 6 h. Besides, the “VEGF111 induction, dose-response” value in the assay on VEGF111 mRNA [2] (MCF7 cells, with the concentration of camptothecin) was “progressively increased”.
